Measurements reported in publication PMC11310079, “Commensal production of a broad-spectrum and short-lived antimicrobial peptide polyene eliminates nasal Staphylococcus aureus” (Nature Microbiology, 2023).

Key:
S. aureus USA300LAC = experiment: Determination of the IC (miniaturized agar diffusion assay); type: cell-based, Staphylococcus aureus; conditions: agar diffusion on inoculated TSA, 35 µl in 4-mm wells, 24 h 37 °C dark; IC from inhibited agar volume at lowest active amount
Experimental: (§1) Instead, a miniaturized assay was developed. Molten TSA, kept below 42 °C, was inoculated with different test strains at an OD600 of 0.00125. Then, 17.5 ml was poured into Petri dishes, resulting in agar layers of ~3.16 mm thickness. After solidification, a cork borer was used to punch wells of 4-mm diameter into the agar. Thirty-five microlitres of purified epifadin in DMSO–PA (2.4 µg, 1.2 µg, 0.6 µg, 0.3 µg, 0.15 µg and 0.075 µg) was pipetted into the wells, and agar plates were incubated for 24 h at 37 °C in the dark. Diameters of the zones of inhibition were measured and the volume containing the inhibitory epifadin concentration was calculated, using the following formula for cylinder volume: Vc=πxr^2xhVc=cylindervolumeVi=πrz2xha−(πrw2xha)Vi=inhibitedvolumerz2=radius(diameter/2)zoneofinhibitionrw2=radius(diameter/2)ofwellha=heightofagar
(§2) The volume of agar showing inhibition of the test strain was then correlated with the included amount of epifadin, and the epifadin concentration necessary to inhibit test strain growth in a 1 ml volume was calculated to yield IC values. If, for example, 2.4 µg of epifadin lead to an inhibited volume of 480 µl, to inhibit a volume of 1 ml, 5 µg epifadin is needed, which corresponds to an IC of 5 μg ml^−1. These calculations were conducted for the lowest amount of epifadin that led to a zone of inhibition to minimize the necessary epifadin amounts and the calculation error due to the gradient within the inhibition zone. As a control, the same assay was used to determine the IC for vancomycin, daptomycin and lugdunin under these conditions.

S. aureus USA300 JE2 = experiment: as above; type: cell-based, Staphylococcus aureus; conditions: agar diffusion on inoculated TSA, 24 h 37 °C dark; IC from inhibited agar volume
Experimental: as §1, §2

S. aureus USA300 LAC = experiment: Stability analysis of epifadin (bioactivity by agar diffusion after incubation); type: physicochemical, Staphylococcus aureus; conditions: 37 °C, pH 7, light, r4-r10 = 0-6 h
Experimental: Fig. 2 High instability of epifadin under in vivo-like conditions. S. epidermidis IVK83 culture supernatants containing epifadin were precipitated with HCl, freeze-dried and extracted with DMSO. This extract was diluted in TSB, incubated for the indicated time periods with constant shaking under the respective conditions and subsequently tested for activity towards S. aureus USA300 LAC. a, Stability of epifadin compared with other antibacterial agents under standard laboratory conditions (37 °C, pH 7, laboratory light exposure). b, In vivo-like conditions with laboratory light exposure at pH 7 (nasal condition) or pH 5.5 (skin condition) and reduced temperatures; incubation of epifadin under exclusion from light enabled further purification and activity determination. Conditions at pH 7, 37 °C and 0 h were used as reference for 100% stability. Data shown represent the mean ± s.d. of three independent experiments. Source data
The effect of different incubation conditions on the bioactivity of epifadin was analysed by agar diffusion assays on lawns of the sensitive indicator strain S. aureus USA300 LAC. To this end, liquid TSA was inoculated with an overnight culture of USA300 at an OD600 of 0.00125. After solidification of the agar, a cork borer was used to punch wells into the agar with 5 mm diameter. TSB media with 50 mM sodium citrate (pH 5 and 6) or 50 mM tris(hydroxymethyl)aminomethane (pH 8 and 9) were prepared. Epifadin-containing precipitate was dissolved in DMSO (12 mg ml^−1), and insoluble particles were removed by centrifugation. The supernatant was added to the prepared TSB media at a final concentration of 750 µg precipitate per millilitre (37.5 µg in 50 µl). Media were incubated for 6 h at 21 °C, 30 °C or 37 °C with or without laboratory light exposure and constant shaking at 500 rpm in a thermomixer (Eppendorf). As controls, 70 µg ml^−1 (3.5 µg in 50 µl) lugdunin, 24 µg ml^−1 (1.2 µg in 50 µl) gallidermin and 100 µg ml^−1 (5 µg in 50 µl) nisin were used. At different timepoints, 50 µl of each sample was pipetted into the wells of the agar plates. After incubation at 37 °C overnight, zones of inhibition were analysed with ImageJ software (version 1.8.0_112).

CN[C@H](CC(C)C)C(=O)N[C@H]1C(=O)N[C@@H](CC(N)=O)C(=O)N[C@H]2C(=O)N[C@H]3C(=O)N[C@H](C(=O)N[C@H](C(=O)O)c4cc(O)cc(O)c4-c4cc3ccc4O)[C@H](O)c3ccc(c(Cl)c3)Oc3cc2cc(c3O[C@@H]2O[C@H](CO)[C@@H](O)[C@H](O)[C@H]2O[C@H]2C[C@](C)(N)[C@H](O)[C@H](C)O2)Oc2ccc(cc2Cl)[C@H]1O [Vancomycin]
IC* (S. aureus USA300LAC): 6.0 µg/mL
IC* (S. aureus USA300 JE2): 3.7 µg/mL

Gallidermin
stability (remaining antimicrobial activity, 0 h = 100%) (S. aureus USA300 LAC; gallidermin 24 µg/ml in TSB, experiment 1 of 3, after 1 h incubation): 98.31%
stability (remaining antimicrobial activity, 0 h = 100%) (S. aureus USA300 LAC; gallidermin 24 µg/ml in TSB, experiment 1 of 3, after 2 h incubation): 98.34%
stability (remaining antimicrobial activity, 0 h = 100%) (S. aureus USA300 LAC; gallidermin 24 µg/ml in TSB, experiment 1 of 3, after 3 h incubation): 97.66%
stability (remaining antimicrobial activity, 0 h = 100%) (S. aureus USA300 LAC; gallidermin 24 µg/ml in TSB, experiment 1 of 3, after 4 h incubation): 104.98%
stability (remaining antimicrobial activity, 0 h = 100%) (S. aureus USA300 LAC; gallidermin 24 µg/ml in TSB, experiment 1 of 3, after 5 h incubation): 100.66%
stability (remaining antimicrobial activity, 0 h = 100%) (S. aureus USA300 LAC; gallidermin 24 µg/ml in TSB, experiment 1 of 3, after 6 h incubation): 98.44%
stability (remaining antimicrobial activity, 0 h = 100%) (S. aureus USA300 LAC; gallidermin 24 µg/ml in TSB, experiment 2 of 3, after 1 h incubation): 97.85%
stability (remaining antimicrobial activity, 0 h = 100%) (S. aureus USA300 LAC; gallidermin 24 µg/ml in TSB, experiment 2 of 3, after 2 h incubation): 106.35%
stability (remaining antimicrobial activity, 0 h = 100%) (S. aureus USA300 LAC; gallidermin 24 µg/ml in TSB, experiment 2 of 3, after 3 h incubation): 110.68%
stability (remaining antimicrobial activity, 0 h = 100%) (S. aureus USA300 LAC; gallidermin 24 µg/ml in TSB, experiment 2 of 3, after 4 h incubation): 102.27%
stability (remaining antimicrobial activity, 0 h = 100%) (S. aureus USA300 LAC; gallidermin 24 µg/ml in TSB, experiment 2 of 3, after 5 h incubation): 103.29%
stability (remaining antimicrobial activity, 0 h = 100%) (S. aureus USA300 LAC; gallidermin 24 µg/ml in TSB, experiment 2 of 3, after 6 h incubation): 108.21%
stability (remaining antimicrobial activity, 0 h = 100%) (S. aureus USA300 LAC; gallidermin 24 µg/ml in TSB, experiment 3 of 3, after 1 h incubation): 100.01%
stability (remaining antimicrobial activity, 0 h = 100%) (S. aureus USA300 LAC; gallidermin 24 µg/ml in TSB, experiment 3 of 3, after 2 h incubation): 96.91%
stability (remaining antimicrobial activity, 0 h = 100%) (S. aureus USA300 LAC; gallidermin 24 µg/ml in TSB, experiment 3 of 3, after 3 h incubation): 95.85%
stability (remaining antimicrobial activity, 0 h = 100%) (S. aureus USA300 LAC; gallidermin 24 µg/ml in TSB, experiment 3 of 3, after 4 h incubation): 100.24%
stability (remaining antimicrobial activity, 0 h = 100%) (S. aureus USA300 LAC; gallidermin 24 µg/ml in TSB, experiment 3 of 3, after 5 h incubation): 103.69%
stability (remaining antimicrobial activity, 0 h = 100%) (S. aureus USA300 LAC; gallidermin 24 µg/ml in TSB, experiment 3 of 3, after 6 h incubation): 91.59%

Nisin
stability (remaining antimicrobial activity, 0 h = 100%) (S. aureus USA300 LAC; nisin 100 µg/ml in TSB, experiment 1 of 3, after 1 h incubation): 97.92%
stability (remaining antimicrobial activity, 0 h = 100%) (S. aureus USA300 LAC; nisin 100 µg/ml in TSB, experiment 1 of 3, after 2 h incubation): 95.64%
stability (remaining antimicrobial activity, 0 h = 100%) (S. aureus USA300 LAC; nisin 100 µg/ml in TSB, experiment 1 of 3, after 3 h incubation): 93.46%
stability (remaining antimicrobial activity, 0 h = 100%) (S. aureus USA300 LAC; nisin 100 µg/ml in TSB, experiment 1 of 3, after 4 h incubation): 95.48%
stability (remaining antimicrobial activity, 0 h = 100%) (S. aureus USA300 LAC; nisin 100 µg/ml in TSB, experiment 1 of 3, after 5 h incubation): 97.51%
stability (remaining antimicrobial activity, 0 h = 100%) (S. aureus USA300 LAC; nisin 100 µg/ml in TSB, experiment 1 of 3, after 6 h incubation): 85.14%
stability (remaining antimicrobial activity, 0 h = 100%) (S. aureus USA300 LAC; nisin 100 µg/ml in TSB, experiment 2 of 3, after 1 h incubation): 104.00%
stability (remaining antimicrobial activity, 0 h = 100%) (S. aureus USA300 LAC; nisin 100 µg/ml in TSB, experiment 2 of 3, after 2 h incubation): 100.36%
stability (remaining antimicrobial activity, 0 h = 100%) (S. aureus USA300 LAC; nisin 100 µg/ml in TSB, experiment 2 of 3, after 3 h incubation): 102.17%
stability (remaining antimicrobial activity, 0 h = 100%) (S. aureus USA300 LAC; nisin 100 µg/ml in TSB, experiment 2 of 3, after 4 h incubation): 101.46%
stability (remaining antimicrobial activity, 0 h = 100%) (S. aureus USA300 LAC; nisin 100 µg/ml in TSB, experiment 2 of 3, after 5 h incubation): 105.85%
stability (remaining antimicrobial activity, 0 h = 100%) (S. aureus USA300 LAC; nisin 100 µg/ml in TSB, experiment 2 of 3, after 6 h incubation): 97.13%
stability (remaining antimicrobial activity, 0 h = 100%) (S. aureus USA300 LAC; nisin 100 µg/ml in TSB, experiment 3 of 3, after 1 h incubation): 107.69%
stability (remaining antimicrobial activity, 0 h = 100%) (S. aureus USA300 LAC; nisin 100 µg/ml in TSB, experiment 3 of 3, after 2 h incubation): 105.39%
stability (remaining antimicrobial activity, 0 h = 100%) (S. aureus USA300 LAC; nisin 100 µg/ml in TSB, experiment 3 of 3, after 4 h incubation): 113.09%
stability (remaining antimicrobial activity, 0 h = 100%) (S. aureus USA300 LAC; nisin 100 µg/ml in TSB, experiment 3 of 3, after 5 h incubation): 97.70%
stability (remaining antimicrobial activity, 0 h = 100%) (S. aureus USA300 LAC; nisin 100 µg/ml in TSB, experiment 3 of 3, after 6 h incubation): 77.36%
